Test results published in US5208223A, “Phosphocholine derivative inhibitors of phospholipase A2” (American Cyanamid Company, priority 1992, dated 1993).
pIC50: −log10 of the molar value. Where “and” joins values, the source holds several entries; their conditions need not be identical. Equal values may be shown once. Where a name gives a salt, the structure may show the parent alone.

Assays:
Format in all cases: biochemical
porcine pancreatic PLA2 [1] = target: T1, porcine pancreatic PLA2 (Sus scrofa, UniProt P00592); test: MHPLA2 assay: in vitro porcine pancreatic phospholipase A2, mixed micelle design, [s]=10 μm; settings: for inhibition at 50 µg/mL: dose 50 μ/ml
T1 construct: purchased Sigma
T1 sequence (P00592 23-146): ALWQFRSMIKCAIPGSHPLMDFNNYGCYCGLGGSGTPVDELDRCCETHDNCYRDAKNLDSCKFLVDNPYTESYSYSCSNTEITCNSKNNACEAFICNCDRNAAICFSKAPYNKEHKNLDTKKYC
Procedure, shortened: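 Compounds dried with 10 μM 1-stearyl-2-[3H]-arachidonyl-PC substrate in mixed micelles (0.1M tris-HCl pH 9.0, 10 mM CaCl2, 10 mM Na taurocholate). Reaction started by adding enzyme and run 15 min at 37°C, then stopped with TCA. Released [3H]-arachidonate separated by TLC or column and counted by scintillation.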

porcine pancreatic PLA2 [2] = target: T1, porcine pancreatic PLA2; test: SMPLA2 assay: in vitro porcine pancreatic phospholipase A2, mixed micelle design, substrate 100 to 1000 μm
Method: (§1) Phospholipase A2 activity was measured by a radiochemical assay in which labeled synthetic phosphatidylcholine substrate is converted by porcine pancreatic PLA2 to free radiolabeled arachidonate and lyso PC. Radiolabeled arachidonate is extracted from the reaction mixture and separated from unreacted substrate by column chromatography or TLC. Radioactivity (cpm) in samples is quantitated by liquid scintillation counting. Specific details are as follows:
(§2) Labeled substrate(1-stearyl-2-^3 H-arachidonylphosphatidylcholine; Amersham, sp. act. 84 (uCi/mmole, 0.025 to 0.2 uCi/assay tube and unlabeled substrates (Avanti), in sufficient quantity to give 20,000 cpm to 50,000 cpm and 10 μM to 1,000 μM final concentration/assay tube are dried under a stream of nitrogen. The PLA2 and mPLA2 assays utilized a […] substrate concentration. The mHPLA2 and HPLA2 assays (vida infra) utilized a 10 μM substrate concentration and the SmPLA2 assay utilized a substrate concentration ranging from 100 to 1000 μm. The substrate is then redissolved in 0.1M tris-HCl buffer, pH 9.0 containing 10 mM CaCl2 and 10 mM Na taurocholate detergent. The mixture is sonicated in a Kontes Sonifier to yield a homogeneous dispersion. The "mixed" micellar substrate is clear. An aliquot is reserved for a cpm count (total substrate). The total reaction volume is 500 μL; siliconized glassware or plasticware is used throughout. Enzyme (Sigma, sp. act.>690 U/mg protein and preferably 900 U/mg protein) is diluted 1:750 or 1:1000 in 0.1M tris-HCl buffer, pH 9.0 (without Ca^++ and detergent). Enzyme dilution depends on substrate concentration and required enzyme concentration.
(§3) The substrate in buffer is kept on ice until the reaction is started. The reaction is started by adding 10 μL of diluted enzyme solution to 490 μL of micellar substrate solution. Samples are incubated in a 37° C. water bath for 15 minutes with gentle mixing. The reaction is terminated by the addition of 100 μL of 1M fresh trichloroacetic acid (TCA) solution and chilling the tubes on ice for 30 minutes.
(§4) Samples (600 μL) are extracted with 3 ml CHCl3 /MeOH (2:1) for thin layer chromatography or in hexane/ether (9:1) for column chromatography. The phases are separated by gentle centrifugation at 700 rpm×5'. The organic phase is recovered.
(§5) Labeled arachidonate extracted with CHCl3 /MeOH is separated on silica gel G TLC plates (Analtech). Twenty μL of a 2 mg/ml internal standard solution of arachidonic acid (Sigma) is combined with 2-3 ml of the organic phase. The entire mixture is dried under nitrogen and redissolved in 50 μL of CHCl3 /MeOH (2:1). A 20 μL sample is counted in 10 ml of Beckman Redi-solv HP and spotted on silica gel G plates. The solvent system used to develop the plate is CHCl3 /MeOH/13.5N NH3 /H2 O (70:30:4:1). Plates are developed in a glass chamber for 1-11/2 hours, air dried, and the spots visualized in an iodine vapor chamber. Standards of phosphatidylcholine, lyso PC, and arachidonic acid (Sigma) are made as 2 mg/ml stocks in CHCl3 /MeOH (2:1) and spotted on plates. Spots corresponding to arachidonate and phospholipid are scraped and counted in 10 ml Beckman Redi-Solv HP scintillation fluid.
(§6) Samples are extracted with hexane/ether and the upper organic phase recovered. An aliquot is applied to a Silicar CC4 (Malincrodt) column. Columns are prepared using 1 ml of a 1:1 slurry of silicar CC4 in hexane/ether in a Pasteur pipet (approx. 2 cm height). Columns are rinsed with 500 μL of hexane/ether before adding the sample (300-600 μL) to the column. Columns are eluted with a total of 6 ml of hexane/ether. The 6 ml sample is counted in 10 ml of Beckman Redi-Solv HP scintillation fluid.
(§7) or the phospholipase A2 assay, compounds are prepared as 1 mg/ml stock solutions in MeOH and diluted appropriately in PBS. […]

porcine pancreatic PLA2 [3] = target: T1, porcine pancreatic PLA2; test: PLA2 assay: in vitro porcine pancreatic phospholipase A2, preincubation of drug+enzyme, substrate 2 nM; settings: preincubation, subs. con. 2; for inhibition at 10 µg/mL: dose 10 μ/ml; for inhibition at 10 µg/mL / inhibition at 20 µg/mL: read-out: % Inh.; for inhibition at 20 µg/mL: dose 20 μ/ml
Procedure, shortened: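 Porcine pancreatic PLA2 acting on 2 nM radiolabeled arachidonyl-phosphatidylcholine in mixed micelles (0.1 M Tris-HCl pH 9.0, 10 mM CaCl2, 10 mM Na taurocholate), 15 min at 37 °C with preincubation of drug and enzyme. Stopped with TCA; released 3H-arachidonate extracted, separated by TLC or column, counted by scintillation.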

porcine pancreatic PLA2 [4] = target: T1, porcine pancreatic PLA2; test: MPLA2 assay: in vitro porcine pancreatic phospholipase A2, mixed micelle design, substrate 2 nM; settings: for inhibition at 10 µg/mL: dose 10 μ/ml; for inhibition at 20 µg/mL: dose 20 μ/ml
Method: as §1, §2, §3, §4, §5, §6, §7

[5] = dose 10 μ/ml, subs. con. 10, read-out: % Inh. Avg.
[6] = dose 25 μ/ml, subs. con. 10, read-out: % Inh. Avg.
[7] = subs. con. 2, read-out: % Inh. Avg.
[8] = dose 25 μ/ml, subs. con. 2, read-out: % Inh.

SMILES: CCCCCCCCCCCCCCCCOCC(COP(=O)([O-])OCC[N+](C)(C)C)CC(N)CCCCCCCCCCCCCCCC (centres unmarked) [7-(2-Aminooctadecyl)-4-hydroxy-N,N,N-trimethyl-3,5,9-trioxa-4-phosphapentacosanaminium, hydroxide, inner salt, 4-oxide]
- % Inh. (porcine pancreatic PLA2 [1]; dose 10 μ/ml, subs. con. 10): 59%
- inhibition at 10 µg/mL (porcine pancreatic PLA2 [1]; [5]): 70%
- inhibition at 20 µg/mL (porcine pancreatic PLA2 [1]; dose 20 μ/ml, subs. con. 10): 97%
- inhibition at 25 µg/mL (porcine pancreatic PLA2 [1]; dose 25 μ/ml, subs. con. 10, read-out: % Inh.): 78%
- inhibition at 25 µg/mL (porcine pancreatic PLA2 [1]; [6]): 77%
- IC50 (porcine pancreatic PLA2 [1]; subs. con. 10, read-out: IC50 (converted)): 1.91 µM and 7.09 µM and 8.73 µM
- IC50 (porcine pancreatic PLA2 [1]; subs. con. 10, read-out: IC50 Avg. (converted)): 5.87 µM
- % Inh. Avg. (porcine pancreatic PLA2 [2]; dose 25 μ/ml, subs. con. 100): 61%
- inhibition at 25 µg/mL (porcine pancreatic PLA2 [2]; dose 25 μ/ml, subs. con. 100): 63%
- IC50 (porcine pancreatic PLA2 [2]; subs. con. 100, read-out: IC50 (converted)): 20.6 µM and 34.1 µM
- IC50 (porcine pancreatic PLA2 [2]; subs. con. 100, read-out: IC50 Avg. (converted)): 27.3 µM
- inhibition at 10 µg/mL (porcine pancreatic PLA2 [3]): 95%
- inhibition at 20 µg/mL (porcine pancreatic PLA2 [3]): 95%
- IC50 (porcine pancreatic PLA2 [3]; read-out: IC50 (converted)): 0.682 µM
- inhibition at 10 µg/mL (porcine pancreatic PLA2 [4]; subs. con. 2, read-out: % Inh.): 34%
- inhibition at 10 µg/mL (porcine pancreatic PLA2 [4]; [7]): 65%
- inhibition at 20 µg/mL (porcine pancreatic PLA2 [4]; subs. con. 2, read-out: % Inh.): 72%
- inhibition at 20 µg/mL (porcine pancreatic PLA2 [4]; [7]): 85%
- % Inh. (porcine pancreatic PLA2 [4]; dose 25 μ/ml, subs. con. 2): STIM
- inhibition at 25 µg/mL (porcine pancreatic PLA2 [4]; [8]): 92%

SMILES: CCCCCCCCCCCCCCCCOCC(COP(=O)([O-])OCC[N+](C)(C)C)OP(=O)(O)OCCCCC (single isomer, unassigned; less polar) [3,5,8,10-Tetraoxa-4,9-diphosphapentadecan-1-aminium, 7-[(hexadecyloxy)methyl]-4,9-dihydroxy-N,N,N-trimethyl-, hydroxide, 4-(inner salt), 4,9-dioxide, less polar isomer]
- % Inh. (porcine pancreatic PLA2 [1]; dose 10 μ/ml, subs. con. 10): STIM
- % Inh. (porcine pancreatic PLA2 [1]; dose 25 μ/ml, subs. con. 10): STIM
- % Inh. (porcine pancreatic PLA2 [2]; dose 10 μ/ml, subs. con. 100): STIM
- inhibition at 10 µg/mL (porcine pancreatic PLA2 [2]; dose 10 μ/ml, subs. con. 500): 7%
- inhibition at 10 µg/mL (porcine pancreatic PLA2 [2]; dose 10 μ/ml, subs. con. 1000): 22%
- % Inh. (porcine pancreatic PLA2 [2]; dose 25 μ/ml, subs. con. 100): STIM
- inhibition at 25 µg/mL (porcine pancreatic PLA2 [2]; dose 25 μ/ml, subs. con. 500): 29%
- inhibition at 25 µg/mL (porcine pancreatic PLA2 [2]; dose 25 μ/ml, subs. con. 1000): 3%
- % Inh. (porcine pancreatic PLA2 [2]; dose 50 μ/ml, subs. con. 100): STIM
- % Inh. (porcine pancreatic PLA2 [2]; dose 50 μ/ml, subs. con. 500): STIM
- % Inh. (porcine pancreatic PLA2 [2]; dose 50 μ/ml, subs. con. 1000): STIM
- inhibition at 10 µg/mL (porcine pancreatic PLA2 [3]): 21%
- inhibition at 20 µg/mL (porcine pancreatic PLA2 [3]): 41%
- inhibition at 25 µg/mL (porcine pancreatic PLA2 [4]; [8]): 100%

SMILES: CCCCCCCCCCCCCCCCOCC(COP(=O)([O-])OCC[N+](C)(C)C)OC(=O)C(Br)CCCCCCCCCCCCCCCC (centres unmarked) [10-Bromo-7-[(hexadecyloxy)methyl]-4-hydroxy-N,N,N-trimethyl-9-oxo-3,5,8-trioxa-4-phosphahexacosan-1-aminium, hydroxide, inner salt, 4-oxide]
- inhibition at 10 µg/mL (porcine pancreatic PLA2 [1]; [5]): 8%
- inhibition at 25 µg/mL (porcine pancreatic PLA2 [1]; [6]): 10%
- inhibition at 50 µg/mL (porcine pancreatic PLA2 [1]; subs. con. 10, read-out: % Inh.): 37%
- inhibition at 50 µg/mL (porcine pancreatic PLA2 [1]; subs. con. 10, read-out: % Inh. Avg.): 137%
- inhibition at 10 µg/mL (porcine pancreatic PLA2 [2]; dose 10 μ/ml, subs. con. 100): 8%
- inhibition at 10 µg/mL (porcine pancreatic PLA2 [2]; dose 10 μ/ml, subs. con. 500): 0%
- inhibition at 10 µg/mL (porcine pancreatic PLA2 [2]; dose 10 μ/ml, subs. con. 1000): 5%
- inhibition at 25 µg/mL (porcine pancreatic PLA2 [2]; dose 25 μ/ml, subs. con. 100): 1%
- inhibition at 25 µg/mL (porcine pancreatic PLA2 [2]; dose 25 μ/ml, subs. con. 500): 0%
- inhibition at 25 µg/mL (porcine pancreatic PLA2 [2]; dose 25 μ/ml, subs. con. 1000): 10%
- inhibition at 50 µg/mL (porcine pancreatic PLA2 [2]; dose 50 μ/ml, subs. con. 100): 18%
- inhibition at 50 µg/mL (porcine pancreatic PLA2 [2]; dose 50 μ/ml, subs. con. 500): 8%
- inhibition at 50 µg/mL (porcine pancreatic PLA2 [2]; dose 50 μ/ml, subs. con. 1000): 6%
- inhibition at 10 µg/mL (porcine pancreatic PLA2 [4]; subs. con. 2, read-out: % Inh.): 82%
- inhibition at 20 µg/mL (porcine pancreatic PLA2 [4]; subs. con. 2, read-out: % Inh.): 82%
- pIC50 (porcine pancreatic PLA2 [4]; subs. con. 2): 5.74
